From paper PMC6270165, “Synthesis and Biological Evaluation of 3-Benzisoxazolyl-4-indolylmaleimides as Potent, Selective Inhibitors of Glycogen Synthase Kinase-3β” (Molecules, 2013)

Key:
[1] = target: T1, GSK-3β (Homo sapiens, UniProt P49841); test: GSK-3β kinase assay (Z'-LYTE Kinase Assay kit Ser/Thr 9 Peptide); type: biochemical; conditions: 50 nM enzyme, 30 μM ATP, 2 μM substrate peptide; triplicate; mean ± SE; read-out: GSK-3β inhibitory activity IC50 (nM) ± SE
T1 construct: GST (N, cleaved yes); made in house; host or cells: Escherichia coli BL21-Codon Plus (DE3)
Protocol: GSK3β belongs to CMGC family. Here, the other family members were used to evaluate the selectivity of GSK3β inhibitors, including PKC-epsilon (AGC family), JAK2 (TK family), Braf (TKL family), DRAK2 (CAMK family) and IKKβ (other family).The recombinant GST-GSK-3βprotein was expressed in Escherichia coli strain BL21-Codon Plus (DE3), purified by GSTrap affinity chromatography, and cleaved by thrombin. The GSK-3β kinase assay was carried out with the Z´-LYTETM Kinase Assay kit Ser/Thr 9 Peptide substrate (Invitrogen, Grand, NY, USA) in 10 μL reaction volume containing 50 nM enzyme, 30 μM ATP and 2 μM substrate peptide. Drak2 Proteins were presented by professor Jiang-ping Wu (Laboratory of Immunology, Research Centre, CHUM, Notre Dame Hospital, Pavilion DeSève). The Drak2 kinase reaction was performed in a final assay volume of 3.4 μL using the ADP-GLO Kinase Assay Kit (Promega, Madison, WI, USA), according the ADP-GLO protocol and read on an EnVision plate reader. The recombinant PKC-epsilon, IKKβ, and JAK2 with N-terminal His-tag were expressed using baculovirus expression system and purified with Ni-Beads. BRAF protein was from Carna Biosciences, Inc. (Kobe Port Island, Japan). And the related kinase reactions were performed in a final assay volume of 10 μL using the related HTRF Assay Kit (Cisbio, Codolet, France). Reactions were according the HTRF protocol and read on an EnVision plate reader. All reactions were carried out in triplicate. […] Data were expressed as mean ± SE.

[2] = tested on: Tau phosphorylation at Ser 396 in SH-SY5Y cells; test: Aβ25-35-induced Tau phosphorylation (Ser396) in SH-SY5Y cells, Western blotting; type: cell-based, human; conditions: 100 nM, inhibitors 1 hour, then Aβ25–35 6 hours, Western blot
Protocol: It has been implicated that GSK-3β is involved in multiple cellular processes, and its ability to hyperphosphorylate Tau protein and induce neurofibrillary tangle was intensively studied. Therefore, the cell-based assay examining Tau phosphorylation at Serine 396 represents a direct functional assay to measure the cellular activity of GSK-3β inhibitors. Compounds 7c, 7f, 7j–l and 7o–q were tested for the ability to reduce Tau phosphorylation at Ser 396 in human neuroblastoma SH-SY5Y cells. LiCl, a well-known inhibitor of GSK-3β [24], was used as a positive control in this assay. […] The Aβ-induced Tau hyperphosphorylation results in neurofibrillary tangle formation, which plays an important role in Alzheimer’s disease. […] In addition, the predictions about these compounds’ brain permeability were performed using ADME module with Discovery Studio 2.1 software package.
SH-SY5Y human neuroblastoma cells were obtained from the American Type Culture Collection (ATCC, Manassas, VA, USA). Cells were cultured in 1:1 DMEM:Ham's F12 containing 10% (v/v) fetal bovine serum (HyClone, Logan, UT, USA), 1% penicillin, and 1% streptomycin at a humidified atmosphere with 5% CO2. The medium was changed every 2 days. […] Antigen-antibody complexes were detected by the ECL Kit.

T1 sequence (P49841 whole entry): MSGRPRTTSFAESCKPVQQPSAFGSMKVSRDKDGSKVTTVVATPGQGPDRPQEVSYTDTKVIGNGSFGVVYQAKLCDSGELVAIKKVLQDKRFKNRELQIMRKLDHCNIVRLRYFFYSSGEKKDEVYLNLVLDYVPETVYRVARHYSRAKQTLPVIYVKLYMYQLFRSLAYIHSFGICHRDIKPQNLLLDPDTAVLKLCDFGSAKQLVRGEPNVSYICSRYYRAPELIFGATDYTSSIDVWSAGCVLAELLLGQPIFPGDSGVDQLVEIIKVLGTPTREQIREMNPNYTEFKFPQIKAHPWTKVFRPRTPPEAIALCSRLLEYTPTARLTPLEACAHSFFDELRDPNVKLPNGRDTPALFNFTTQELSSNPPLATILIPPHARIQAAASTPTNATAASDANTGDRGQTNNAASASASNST

- IC50 [1]: 127 ± 3.2 nM
SMILES: O=C1NC(=O)C(c2cn(CCCN3CCOCC3)c3cc(F)ccc23)=C1c1noc2ccccc12 [7f, 3-(Benzo[d]isoxazol-3-yl)-4-(6-fluoro-1-(3-morpholinopropyl)-1H-indol-3-yl)-1H-pyrrole-2,5-dione]
- Effect on Aβ25-35-induced Tau phosphorylation at Ser 396 [2]: obviously reduce
